Measurements: the CheMixHub viscosity set

Test: xn = mol fraction of the nth substance listed

CCOC(=O)CCC(=O)OCC + CCCCO
100 kPa
Conditions	viscosity [mPa·s]
303.15 K, x1 = 0.1	1.845
308.15 K, x1 = 0.6998	1.635
313.15 K, x1 = 0.3	1.355
318.15 K, x1 = 0.2001	1.245
323.15 K, x1 = 0.8997	1.435

OCCCl + CCCCO
viscosity [mPa·s], 101.33 kPa
Conditions	x1 = 0.097	x1 = 0.1922	x1 = 0.2941	x1 = 0.3928	x1 = 0.4937	x1 = 0.5925	x1 = 0.6943	x1 = 0.7957	x1 = 0.8961
298.15 K	2.59	2.593	2.597	2.616	2.641	2.672	2.702	2.731	2.781
303.15 K	2.29	2.25	2.271	2.288	2.316	2.363	2.38	2.4	2.428
308.15 K	2.028	2.029	2.026	2.027	2.047	2.075	2.1	2.12	2.14

OCCCl + CCCCOC(C)=O
viscosity [mPa·s], 101.33 kPa
Conditions	x1 = 0.1068	x1 = 0.2078	x1 = 0.3045	x1 = 0.4056	x1 = 0.5002	x1 = 0.5993	x1 = 0.7	x1 = 0.8008	x1 = 0.8994
298.15 K	0.718	0.784	0.865	0.97	1.105	1.286	1.549	1.919	2.359
303.15 K	0.669	0.732	0.801	0.894	1.013	1.169	1.391	1.704	2.106
308.15 K	0.627	0.684	0.746	0.828	0.932	1.07	1.262	1.518	1.849

CCCCCCCCCCC + CCCCOCCCC
viscosity [mPa·s], 101 kPa
Conditions	x2 = 0.1096	x2 = 0.2089	x2 = 0.3153	x2 = 0.4013	x2 = 0.5046	x2 = 0.6034	x2 = 0.7073	x2 = 0.8109	x2 = 0.9181
298.15 K	1.004	0.9429	0.889	0.8479	0.8073	0.7715	0.7333	0.7	0.6643
308.15 K	0.8817	0.8306	0.7845	0.7501	0.7159	0.6891	0.6599	0.6356	0.6114
318.15 K	0.7547	0.7179	0.6814	0.6523	0.624	0.5989	0.5761	0.5579	0.5355

NC=O + CCCCn1cc[n+](C)c1.F[B-](F)(F)F
101 kPa
Conditions	viscosity [mPa·s]
293.15 K, x2 = 0.7588	71.35
303.15 K, x2 = 0.5095	21.65

CCOC(=O)CCC(=O)OCC + CCCO
100 kPa
Conditions	viscosity [mPa·s]
293.15 K, x1 = 0.3998	1.875
313.15 K, x1 = 0.4999	1.325
318.15 K, x1 = 0.8997	1.545
323.15 K, x1 = 0.3998	1.065

OCCCl + CCCO
viscosity [mPa·s], 101.33 kPa
Conditions	x1 = 0.099	x1 = 0.1945	x1 = 0.2948	x1 = 0.3912	x1 = 0.4924	x1 = 0.5924	x1 = 0.693	x1 = 0.8071	x1 = 0.8959
298.15 K	1.761	1.802	1.842	1.92	2.028	2.148	2.281	2.428	2.6
303.15 K	1.58	1.62	1.67	1.735	1.813	1.891	2.02	2.16	2.3
308.15 K	1.4	1.44	1.48	1.542	1.606	1.678	1.76	1.88	2.001

OCCCl + CCCOC(C)=O
viscosity [mPa·s], 101.33 kPa
Conditions	x1 = 0.1017	x1 = 0.2031	x1 = 0.3017	x1 = 0.4061	x1 = 0.5057	x1 = 0.5974	x1 = 0.7006	x1 = 0.7963	x1 = 0.9006
298.15 K	0.593	0.658	0.736	0.852	0.989	1.155	1.43	1.805	2.302
303.15 K	0.557	0.614	0.687	0.792	0.908	1.057	1.293	1.615	2.035
308.15 K	0.525	0.58	0.642	0.733	0.856	0.97	1.177	1.473	1.81

CCCC(O)CC (stereo unspecified) + CCO
298.15 K, 101.33 kPa
Conditions	viscosity [mPa·s]
x2 = 0.1028	4.236
x2 = 0.2116	3.975
x2 = 0.3124	3.658
x2 = 0.4135	3.218
x2 = 0.5018	2.88
x2 = 0.6027	2.459
x2 = 0.6987	2.054
x2 = 0.7994	1.673
x2 = 0.9044	1.363

CN1CCC[C@H]1c1cccnc1 + CCO
viscosity [mPa·s], 101.33 kPa
Conditions	298.15 K	323.15 K
x1 = 0.0501	1.468	0.8557
x1 = 0.1104	1.756	1.03
x1 = 0.1524	1.941	1.123
x1 = 0.2923	2.477	1.376
x1 = 0.3425	2.652	1.482
x1 = 0.4474	3.004	1.703
x1 = 0.4676	3.008	1.764
x1 = 0.5898	3.224	1.784
x1 = 0.6839	3.497	1.88
x1 = 0.7725	3.564	1.961
x1 = 0.8957	3.801	2.026
x1 = 0.8976	3.803	2.026

COCC(C)OCC(C)O (stereo unspecified) + CCO
viscosity [mPa·s], 101.33 kPa
Conditions	298.15 K	308.15 K	318.15 K
x1 = 0.05	1.237	1.014	0.84
x1 = 0.1	1.385	1.119	0.92
x1 = 0.1501	1.525	1.218	0.996
x1 = 0.2	1.661	1.32	1.073
x1 = 0.2501	1.803	1.421	1.148
x1 = 0.3	1.941	1.521	1.225
x1 = 0.35	2.081	1.623	1.301
x1 = 0.4001	2.216	1.723	1.379
x1 = 0.45	2.35	1.82	1.451
x1 = 0.5	2.485	1.916	1.525
x1 = 0.5497	2.616	2.006	1.594
x1 = 0.6	2.744	2.099	1.662
x1 = 0.6497	2.871	2.192	1.726
x1 = 0.7001	3.001	2.281	1.796
x1 = 0.75	3.125	2.365	1.857
x1 = 0.8001	3.241	2.449	1.922
x1 = 0.8497	3.359	2.531	1.979
x1 = 0.8996	3.472	2.61	2.036
x1 = 0.9498	3.579	2.686	2.09

OCCCl + CCO
viscosity [mPa·s], 101.33 kPa
Conditions	x1 = 0.0955	x1 = 0.2589	x1 = 0.2902	x1 = 0.3931	x1 = 0.4925	x1 = 0.5932	x1 = 0.6938	x1 = 0.7947	x1 = 0.8984
298.15 K	1.086	1.262	1.302	1.45	1.61	1.798	2.001	2.222	2.538
303.15 K	0.987	1.14	1.174	1.306	1.447	1.601	1.772	1.958	2.197
308.15 K	0.897	1.034	1.065	1.179	1.297	1.432	1.579	1.735	1.932

OCCCl + CCOC(C)=O
viscosity [mPa·s], 101.33 kPa
Conditions	x1 = 0.1033	x1 = 0.2006	x1 = 0.3231	x1 = 0.4048	x1 = 0.5015	x1 = 0.6007	x1 = 0.7022	x1 = 0.8	x1 = 0.9
298.15 K	0.485	0.542	0.643	0.729	0.864	1.065	1.326	1.689	2.242
303.15 K	0.454	0.51	0.601	0.679	0.8	0.967	1.2	1.517	1.98
308.15 K	0.43	0.482	0.565	0.635	0.746	0.894	1.098	1.369	1.776

NC=O + CN(C)C=O
298.15 K, 101.3 kPa
Conditions	viscosity [mPa·s]
x1 = 0.1	1.041
x1 = 0.2	1.27
x1 = 0.3	1.472
x1 = 0.4	1.698
x1 = 0.5	1.939
x1 = 0.6	2.198
x1 = 0.7	2.483
x1 = 0.8	2.817
x1 = 0.9	3.191

OCCCO + CN(C)C=O
308.15 K, 101 kPa
Conditions	viscosity [mPa·s]
x1 = 0.0229	0.76
x1 = 0.0468	0.834
x1 = 0.0914	0.904
x1 = 0.2048	1.267
x1 = 0.3032	1.748
x1 = 0.397	2.4
x1 = 0.4994	3.516
x1 = 0.597	5.056
x1 = 0.699	7.606
x1 = 0.7983	11.93
x1 = 0.9001	17.75
x1 = 0.9477	20.44
